Experimental data from patent US20220073536A1 (Rigel Pharmaceuticals, Inc., priority 2003, published 2022).
Values belong to the compound of their own block, whether it stands above or below them.

Experiments:
[1] = tested on: cultured human mast cells (CHMC); experiment: CHMC low cell density ionomycin activation: tryptase assay; format: cell-based; conditions: read-out: LD Tryptase, CHMC, Iono, 3 pt
[2] = tested on: cultured human mast cells (CHMC); experiment: CHMC low cell density IgE activation: tryptase assay; format: cell-based; conditions: IgE activation
Method in brief: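 CHMC at 1000–1500 cells/well were preincubated 1 hr at 37° C., stimulated with anti-IgE for 30 minutes at 37° C., then pelleted. Supernatant tryptase was measured with a fluorogenic substrate after 30 min at room temperature, against un-stimulated control wells.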

[3] = low cell density CHMC, tryptase readout, 3 pt
[4] = low cell density CHMC, tryptase readout, 3 pt, read-out: LD Tryptase, CHMC, IgE, 3 pt
[5] = low cell density CHMC, tryptase readout, 8 pt, read-out: LD Tryptase, CHMC, IgE, 8 pt
[6] = Homo sapiens, Mast cell, low cell density CHMC, tryptase, 3 pt
[7] = Homo sapiens, Mast cell, low cell density CHMC, tryptase, 3 pt, read-out: LD Tryptase, CHMC, IgE, 3 pt
[8] = low cell density CHMC, tryptase, 3 pt
[9] = low cell density CHMC, tryptase, 3 pt, read-out: LD Tryptase, CHMC, IgE, 3 pt
[10] = Homo sapiens, Mast cell, low cell density CHMC, tryptase release, 3 point
[11] = Homo sapiens, Mast cell, low cell density CHMC, tryptase release, 3 point, read-out: LD Tryptase, CHMC, IgE, 3 pt
[12] = Homo sapiens, Mast cell, low cell density, 3 pt
[13] = Homo sapiens, Mast cell, low cell density, 3 pt, read-out: LD Tryptase, CHMC, IgE, 3 pt
[14] = Homo sapiens, Mast cell, low cell density, 8 pt, read-out: LD Tryptase, CHMC, IgE, 8 pt
[15] = low cell density CHMC, tryptase release, 3 point
[16] = low cell density CHMC, tryptase release, 3 point, read-out: LD Tryptase, CHMC, IgE, 3 pt
[17] = low cell density CHMC, tryptase release, 8 point, read-out: LD Tryptase, CHMC, IgE, 8 pt
[18] = Homo sapiens, Mast cell, low cell density CHMC, tryptase release, 3 pt
[19] = Homo sapiens, Mast cell, low cell density CHMC, tryptase release, 3 pt, read-out: LD Tryptase, CHMC, IgE, 3 pt
[20] = Homo sapiens, Mast cell, low cell density CHMC, tryptase release, 8 pt, read-out: LD Tryptase, CHMC, IgE, 8 pt
[21] = Homo sapiens, Mast cell, low cell density CHMC, tryptase readout, 3 pt
[22] = Homo sapiens, Mast cell, low cell density CHMC, tryptase readout, 3 pt, read-out: LD Tryptase, CHMC, IgE, 3 pt
[23] = Homo sapiens, Mast cell, low cell density CHMC, tryptase readout, 8 pt, read-out: LD Tryptase, CHMC, IgE, 8 pt

IC50 [1, 3]: < 10 µM | IC50 [2, 4]: < 10 µM | IC50 [2, 5]: < 10 µM
Compound: CCOC(=O)COc1c(C)cc(Nc2ncc(F)c(Nc3ccc4c(c3)NC(=O)C(C)(C)O4)n2)cc1Cl [Compound 1014, N2-[3-Chloro-4-ethoxycarbonylmethyleneoxy-5-methylphenyl]-N4-(2,2-dimethyl-3-oxo-4H-benz[1,4]oxazin-6-yl)-5-fluoro-2,4-pyrimidinediamine]

IC50 [1, 6]: > 10 µM | IC50 [2, 7]: < 10 µM
Compound: CN1CCN(c2cccc(Nc3ncc(F)c(NC4CCCC4)n3)c2)CC1 [Compound 1160]

IC50 [1, 8]: < 10 µM | IC50 [2, 9]: < 10 µM
Compound: N2- (3-Chloro-4-methoxyphenyl)-N4- (2,2-dimethyl-3-oxo-4H-benz[1,4]oxazin-6-yl)-5-fluoro-N4-methyl-2,4-pyrimidinediamine [Compound 394]

IC50 [1, 10]: < 10 µM | IC50 [2, 11]: > 10 µM
Compound: Cc1cc(N(C)c2nc(Cl)ncc2F)cc(C)c1Cl [Compound 626]

IC50 [1, 12]: < 10 µM | IC50 [2, 13]: < 10 µM | IC50 [2, 14]: < 10 µM
Compound: COc1c(C)cc(Nc2ncc(F)c(Nc3ccc4c(c3)OCCO4)n2)cc1Cl [Compound 999]

IC50 [1, 12]: > 10 µM | IC50 [2, 13]: < 10 µM | IC50 [2, 14]: < 10 µM
Compound: CNC(=O)c1ccc(Nc2nc(Nc3cc(C)cc(C)c3)ncc2F)cc1Cl [Compound 482]

IC50 [1, 3]: > 10 µM | IC50 [2, 4]: < 10 µM
Compound: CCOC(=O)N1CCN(c2cccc(Nc3ncc(F)c(NC4CCC4)n3)c2)CC1 [Compound 1109, N4-Cyclobutyl-N2-[3-(4-ethoxycarbonylpiperazino)pheny]-5-fluoro-2,4-pyrimidinediamine]

IC50 [1, 15]: < 10 µM | IC50 [2, 16]: < 10 µM | IC50 [2, 17]: < 10 µM
Compound: COC(=O)COc1ccc(Nc2nc(Nc3cc(OC)cc(OC)c3)ncc2F)cc1Cl [Compound 615, N4-[3-Chloro-4-(methoxycarbonyl)methyleneoxyphenyl]-N2-(3,5-dimethoxyphenyl)-5-fluoro-2,4-pyrimidinediamine]

IC50 [1, 3]: > 10 µM | IC50 [2, 4]: < 10 µM | IC50 [2, 5]: < 10 µM
Compound: CC1(C)Oc2ccc(Nc3nc(Nc4ccc5c(c4)OCCO5)ncc3F)nc2NC1=O [Compound 1055, N4-(2,2-Dimethyl-3-oxo-4H-5-pyrid[1,4]oxazin-6-yl)-N2-(3,4-ethylenedioxyphenyl)-5-fluoro-2,4-pyrimidinediamine]

IC50 [1, 12]: > 10 µM | IC50 [2, 13]: < 10 µM
Compound: COC(=O)c1cc(Nc2ncc(F)c(Nc3ccc(OC)c(OC)c3)n2)cc(-c2ncco2)c1 [Compound 515, N4-(3,4-Dimethoxyphenyl)-5-fluoro-N2-[5-methoxycarbonyl-3-(oxazol-2-yl)phenyl]-2,4-pyrimidinediamine]

IC50 [1, 6]: > 10 µM | IC50 [2, 7]: < 10 µM
Compound: CNC(=O)c1cc2cccc(Nc3ncc(F)c(N(C)c4cc(OC)cc(OC)c4)n3)c2[nH]1 [Compound 406, N4-(3,5-Dimethoxyphenyl)-5-fluoro-N4-methyl-N2-[2-(N-methylamino)carbonylindol-7-yl]-2,4-pyrimidinediamine]

IC50 [1, 12]: > 10 µM | IC50 [2, 13]: < 10 µM
Compound: CNC(=O)c1cc(Nc2ccnc(Nc3ccc4cc[nH]c4c3)n2)ccc1Cl [Compound 479, N4-[4-Chloro-3-(N-methylamino)carbonylphenyl]-N2-(indol-6-yl)-2,4-pyrimidinediamine]

IC50 [1, 6]: > 10 µM | IC50 [2, 7]: < 10 µM | IC50 ([2]; Homo sapiens, Mast cell, low cell density CHMC, tryptase, 8 pt, read-out: LD Tryptase, CHMC, IgE, 8 pt): < 10 µM
Compound: COC(=O)CCNC(=O)c1ccc(Nc2ncc(F)c(Nc3ccc4c(c3)NC(=O)C(F)(F)O4)n2)cc1 [Compound 1304]

IC50 [1, 10]: > 10 µM | IC50 [2, 11]: < 10 µM | IC50 ([2]; Homo sapiens, Mast cell, low cell density CHMC, tryptase release, 8 point, read-out: LD Tryptase, CHMC, IgE, 8 pt): < 10 µM
Compound: CNC(=O)c1cc(Nc2ncc(F)c(Nc3ccc(Cl)c(C(F)(F)F)c3)n2)ccc1Cl [Compound 609]

IC50 [1, 15]: > 10 µM | IC50 [2, 16]: < 10 µM | IC50 [2, 17]: > 10 µM
Compound: CNC(=O)COc1ccc(Nc2nc(Nc3cc(C)c(Cl)c(C)c3)ncc2F)cc1Cl [Compound 603, N2-(4-Chloro-3,5-dimethylphenyl)-N4-[3-chloro-4-(N-methylamino)carbonylmethyleneoxyphenyl]-5-fluoro-2,4-pyrimidinediamine]

IC50 [1, 18]: > 10 µM | IC50 [2, 19]: < 10 µM | IC50 [2, 20]: < 10 µM
Compound: COc1ccc(Nc2nc(Nc3ccc4c(cnn4CCCNS(C)(=O)=O)c3)ncc2F)cc1Cl [Compound 832, N4-(3-Chloro-4-methoxyphenyl)-5-fluoro-N2-[1-[3-(N-methylsulfonylamino)propyl]indazol-5-yl]-2,4-pyrimidinediamine]

IC50 [1, 12]: > 10 µM | IC50 [2, 13]: < 10 µM
Compound: COc1ccc(Nc2nc(Nc3cc(-c4ncco4)cc(C(F)(F)F)c3)ncc2F)cc1OC [Compound 520, N4-(3,4-Dimethoxyphenyl)-5-fluoro-N2-[3-(oxazol-2-yl)-5-trifluoromethylphenyl]-2,4-pyrimidinediamine]

IC50 ([1]; low cell density CHMC, tryptase release, 3 pt): > 10 µM | IC50 ([2]; low cell density CHMC, tryptase release, 3 pt, read-out: LD Tryptase, CHMC, IgE, 3 pt): < 10 µM | IC50 ([2]; low cell density CHMC, tryptase release, 8 pt, read-out: LD Tryptase, CHMC, IgE, 8 pt): < 10 µM
Compound: COc1cc(Nc2ncc(F)c(Nc3ccc4c(c3)NCC(CCO)O4)n2)cc(OC)c1 (stereo not shown) [Compound 253, N4-[3,4-Dihydro-2-(2-hydroxyethyl)-2H,4H-benz[1,4]oxazin-6-yl]-N2-(3,5-dimethoxyphenyl)-5-fluoro-2,4-pyrimidinediamine]

IC50 [1, 12]: > 10 µM | IC50 [2, 13]: > 10 µM
Compound: Nc1cccc(Nc2nc(Cl)ncc2F)n1 [Compound 486, N4-(2-Aminopyrid-6-yl)-2-chloro-5-fluoro-4-pyrimidineamine]

IC50 [1, 6]: > 10 µM | IC50 [2, 7]: < 10 µM
Compound: COC(=O)CN(c1ccc2c(c1)OCCO2)c1nc(Nc2cccc(-c3ncco3)c2)ncc1F [Compound 444]

IC50 [1, 18]: > 10 µM | IC50 [2, 19]: < 10 µM | IC50 [2, 20]: < 10 µM
Compound: COCCn1ncc2ccc(Nc3ncc(F)c(Nc4ccc5c(c4)NC(=O)C(C)(C)O5)n3)cc21 [Compound 777, N4-(2,2-Dimethyl-3-oxo-4H-benz[1,4]oxazin-6-yl)-5-fluoro-N2-[1-(2-methoxyethyl)indazol-6-yl]-2,4-pyrimidinediamine]

IC50 [1, 8]: > 10 µM | IC50 [2, 9]: < 10 µM
Compound: N4- (2,2-Difluoro-3-oxo-4H-benz[1,4]oxazin-6-yl)-5-fluoro-N2-[4-[N- (N-methylamino)carbonylmethylene]aminocarbonylphenyl]-2,4-pyrimidinediamine [Compound 1297]

IC50 [1, 21]: < 10 µM | IC50 [2, 22]: < 10 µM | IC50 [2, 23]: < 10 µM
Compound: COc1c(C)cc(Nc2ncc(F)c(Nc3ccc4c(c3)N(C)C(=O)C(C)(C)O4)n2)cc1C [Compound 1033]

IC50 [1, 15]: > 10 µM | IC50 [2, 16]: > 10 µM
Compound: CN(c1ccc2c(c1)OC(F)(F)C(F)(F)O2)c1nc(Cl)ncc1F [Compound 627]

IC50 [1, 6]: > 10 µM | IC50 [2, 7]: < 10 µM
Compound: Fc1cnc(Nc2ccc(N3CCOCC3)cc2)nc1NC1CCCC1 [Compound 1155, N4-Cyclopentyl-5-fluoro-N2-(4-morpholinophenyl)-2,4-pyrimidinediamine]

IC50 [1, 12]: > 10 µM | IC50 [2, 13]: < 10 µM | IC50 [2, 14]: < 10 µM
Compound: CNC(=O)c1ccc(Nc2ncc(F)c(Nc3ccc4c(c3)OCCO4)n2)cc1Cl [Compound 463]

IC50 [1, 21]: > 10 µM | IC50 [2, 22]: < 10 µM | IC50 [2, 23]: < 10 µM
Compound: COc1cc(Nc2ncc(F)c(NC3CCC3)n2)cc(OC)c1 [Compound 1088, N4-Cyclobutyl-N2-(3,5-dimethoxyphenyl)-5-fluoro-2,4-pyrimidinediamine]

IC50 [1, 18]: < 10 µM | IC50 [2, 19]: < 10 µM | IC50 [2, 20]: < 10 µM
Compound: COCCCn1ncc2ccc(Nc3ncc(F)c(Nc4ccc5c(c4)NC(=O)C(C)(C)O5)n3)cc21 [Compound 798, N4-(2,2-Dimethyl-3-oxo-4H-benz[1,4]oxazin-6-yl)-5-fluoro-N2-[1-(3-methoxypropyl)indazol-6-yl]-2,4-pyrimidinediamine]

IC50 [1, 18]: > 10 µM | IC50 [2, 19]: < 10 µM | IC50 [2, 20]: < 10 µM
Compound: O=C1Nc2cc(Nc3nc(Nc4cccc(-c5cnco5)c4)ncc3F)ccc2OC1CCO (stereo not shown) [Compound 235]

IC50 [1, 6]: < 10 µM | IC50 [2, 7]: < 10 µM
Compound: CCOC(=O)N1CCN(c2ccc(Nc3ncc(F)c(NC4CCCCC4)n3)cc2)CC1 [Compound 1165, N4-Cyclohexyl-N2-[4-(4-ethoxycarbonylpiperazino)phenyl]-5-fluoro-2,4-pyrimidinediamine]
